Assays:
[1] = tested on: transferrin endocytosis; assay: Transferrin endocytosis (confocal microscopy); assay type: cell-based, human; settings: 1 uM, 10, 30, 60 min at 37° C.
Experimental: The reduced endocytosis rate may be caused by total reduction of endocytosis other than the specific reduction of APP endocytosis rate, because many proteins other than APP can be modified to include the O-glycosylation and the like, by Justicidin A. Thus, the effect of Justicidin A to transferrin, internalized by clathrin-dependent endocytosis like APP was measured, in order to identify selectivity of reducing of APP endocytosis rate by O-glycosylation.
5×10^5 cells of HeLa cell line transfected with amyloid precursor protein (APP) same as above, incubated for 24 hrs, 1 uM Justicidin A treated at 4° C. for 45 min. Then, transferrin was fluorescent-labeled by treating Alexa Fluor 488 conjugated transferrin (25 ug/ml concentration, #T13342, Invitrogen). Transferrin endocytosis was progressed depending on the incubation time 10, 30, 60 min at 37° C., then remained transferrin was washed out by treating pH 5.5 buffer (0.1M sodium acetate, 0.05M NaCl) to cell surface for 5 min
Intracellular location of transferrin was measured by confocal microscopy (LSM510, Zeiss, Germany) at 488 nm.

[2] = tested on: alpha-secretase product (sAPPα); assay: Alpha-secretase product (sAPPα) production, Western blotting; assay type: cell-based, human; settings: 8 hours, concentrations of FIG. 5
Experimental: The test result confirmed that Justicidin A (C1) obtained in Example 2 and 5-methoxyJusticidin A increased alpha-secretase product (sAPPα). Specifically, the produced amount of sAPPα was measured by treating the cultured cell line (the HeLa cell line transfected with the amyloid precursor protein (APP) driven from human) with Justicidin A (S62-C1) or 5-methoxyJusticitdin A (S62-C2) at a concentration of FIG. 5, culturing it for 8 hours, and measuring the produced amount of sAPPα according to the Western blotting. The negative control was the group with no treatment of Justicidin A or 5-methoxyJusticidin A.

[3] = tested on: APP targeted to plasma membrane (maAPP); assay: Targeting of mature APP (maAPP) to plasma membrane, biotinylation method; assay type: cell-based, human
Experimental: It is reported that APP made in ER, then passed through Golgi, targeted to plasma membrane, in the maAPP form. APP hydrolysis was performed by alpha-secretase, sAPPα secretion was increased, and Aβ secretion, made by beta secretase, was decreased. Relative amount of maAPP increased by Justicidin A, amount of APP targeted to plasma membrane was measured by biotinylation method.
Hela cell line, transfected with the amyloid precursor protein (APP), was incubated in DMEM (Cat. #11995, Gibco, USA). The cell line was received from Prof. Tae-Wan Kim at Department of Pathology, Columbia University Medical Center, New York, N.Y. 10032, USA. 1.5×10^6 cells seeded in 60 mm dish, incubated for 24 hours. […] Avidin (S 1638, Sigma), specifically interacted to biotin, added to pellet (30 ul, 4° C., incubated for 30 min) for precipitation biotinylated protein, and precipitated protein was performed electrophoresis, then measured change of APP protein, exposed protein of outside of cell, by western blotting with APP antibody (1:2000 diluted, A8717, Sigma).
When Justicidin A was treated for 1 hour, the biotinylated APP was increased as the concentration increased 0.03, 0.1, and 0.25 uM, the and the molecular weight was the same as O-glycosylated APP (maAPP) (FIG. 7a). The result of western blotting was measured by band intensity to show the result in FIG. 7b. […]

[4] = tested on: PC12 cell treated with Aβ25-35; assay: Protection against cellular toxicity induced by Aβ25-35; assay type: cell-based; settings: 30 uM Aβ25-35, 48 hrs
Experimental: To identify the protecting effect against cellular toxicity induced by Aβ, PC12 cell was treated with Justicidin A and Aβ25-35 and measured cell viability. More particularly, 1.5×10^4 cells of PC12 were seeded to each well of 96-well plate, and incubated for 24 hrs. Then, the plate was treated with various concentrations of Justicidin A 30 min, treated 30 uM Aβ25-35, and incubated for 48 hrs. Cell viability was measured by Cell counting kit-8 to show the result FIG. 12b.

[5] = tested on: HeLa cell line transfected with the amyloid precursor protein (APP); assay: MTT cell proliferation assay (cell death); assay type: cell-based; settings: 5 μg/ml, 8 hours
Experimental: To test the effect of Justicidin A and 5-methoxyJusticidin A on cell death, the MTT Cell Proliferation assay method (ATCC catalog #30-1010K, Manassas, USA) was used. Specifically, the HeLa cell line transfected with the amyloid precursor protein (APP) driven from human was treated with various concentrations of Justicidin A (S62-C1) or 5-methoxyJusticitdin A (S62-C2) for 8 hours, and the viable cells were quantified to show the result in FIG. 3.

[6] = tested on: beta-amyloid (Aβ40, Aβ42) formation; assay: Beta-amyloid (Aβ40, Aβ42) formation, ELISA, in APP-transfected HeLa cells; assay type: cell-based, human; settings: HeLa-APP cells, various concentrations (FIGS. 1, 2, 6)
Experimental: To test the inhibitory effect of Justicidin A (C1) obtained in Example 2 on the beta-amyloid formation, HeLa cell line transfected with the amyloid precursor protein (APP) driven from human was cultured in DMEM solution (Cat. #11995, Gibco, USA) for use. The cell line was received from Prof. Tae-Wan Kim at Department of Pathology, Columbia University Medical Center, New York, N.Y. 10032, USA.
Specifically, the Justicidin A of Example 2 was added into the cell line culture at the amount indicated in FIG. 1, and then the produced amount of be-amyloid (Aβ40, Aβ42 was measured. Human β-Amyloid[1-40](Aβ40), Human β-Amyloid [1-42](Aβ42) Colorimetric ELISA kit (#KHB3482 and #KHB3442; BioSource International, Inc., U.S.A.) were used to quantify two types of beta-amyloid (Aβ40, Aβ42).
The 5-methoxyJusticidin A (C2) of Example 2 was added into the cell line culture at the amount indicated in FIG. 2, and then the produced amount of be-amyloid was measured according to the method of Example 1.1. The group which was not treated with 5-methoxyjusticidin A was used as a negative control.
The compounds were used at the amount of FIG. 6, and measured for the beta-amyloid (Aβ40, Aβ42) formation according to the same method of Experimental Example <1-1>. The group treated with Justicidin A(C1) was a positive control and the group with no treatment was a negative control.

SMILES: COc1cc2c(OC)c3c(c(-c4ccc5c(c4)OCO5)c2cc1OC)C(=O)OC3 [Justicidin A]
- transferrin endocytosis [1]: no effect of Justicidin A to transferrin endocytosis
- formation of alpha-secretase product (sAPPα) [2]: activated the formation of alpha-secretase product (sAPPα)
- amount of maAPP in the cell membrane, by treatment time ([3]; 0.1 uM, 10 min to 240 min): the amount of maAPP in the cell membrane as the treatment time increased
- amount of maAPP (biotinylated APP) in plasma membrane, by concentration ([3]; 0.03, 0.1, and 0.25 uM, 1 hour): amount of maAPP increased in plasma membrane in a concentration-dependent manner
- toxicity induced by Aβ25-35 [4]: reduced the toxicity induced by Aβ25-35 in a concentration-dependent manner
- cell lines died [5]: ≤ 20%
- inhibition of beta-amyloid (Aβ40, Aβ42) formation [6]: inhibited the beta-amyloid (Aβ40, Aβ42) formation at a concentration-dependent manner

Reference: US9211278B2, “Composition containing arylnaphthalene lignan derivative for preventing and/or treating dementia” (KOREA INSTITUTE OF SCIENCE AND TECHNOLOGY, priority 2012, dated 2015)
